In brackets after ≈: the same amount, converted by molar mass. Activity calls are given as the source filed them. No rule for the calls is given here.
Tested on: aqueous solubility in 1x PBS
Experiment: compound solubility in 1x PBS – biophysical, set 2, ADME assay (AID 624321)
Details: at 100 µM; active compounds read high

SMILES | solubility
O=C(O)c1ccc(N2C(=O)/C(=C/c3ccc(-c4ccc([N+](=O)[O-])cc4)o3)C=C2c2ccccc2)cc1 | 0.92 µg/mL (inactive) (≈ 1.92 µM)
O=c1[nH]c(SCc2ccc(Cl)cc2)nc2c1CCC2 | 0.62 µg/mL (inactive) (≈ 2.12 µM)
Cc1ccc(C)c(OCCn2cc(C(=O)O)c3ccccc32)c1 | 25.1 µg/mL (≈ 81.1 µM)
CN(C)C1=C(Cl)C(=O)N(c2ccc(Cl)c(Cl)c2)C1=O | < 0.01 µg/mL (inactive)
C/C=C/Cn1c(SCCCc2ccccc2)nc2c1c(=O)[nH]c(=O)n2C | 0.19 µg/mL (inactive) (≈ 0.513 µM)
C=CCn1c(SCC(=O)c2ccc(O)c(O)c2)nnc1-c1ccccc1OC | 26 µg/mL (≈ 65.4 µM)
Cn1cnc([N+](=O)[O-])c1Sc1ncnc2nc[nH]c12 | > 27 µg/mL
COc1ccc(N(C(=O)CCl)C(C(=O)NCCc2ccccc2)c2cccs2)cc1Cl (centres undefined) | 0.51 µg/mL (inactive) (≈ 1.07 µM)
CCOc1ccc(-c2nc(-c3ccncc3)no2)cc1OCC | 0.77 µg/mL (inactive) (≈ 2.47 µM)
CCCn1ncc(CN2CCCC(C(=O)c3cccc(OC(C)C)c3)C2)c1C (centres undefined) | 29.6 µg/mL (≈ 77.2 µM)
COC(=O)c1ccccc1NC(=O)c1ccc(F)cc1 | 0.94 µg/mL (inactive) (≈ 3.44 µM)
Cc1ccc(S(=O)(=O)n2c(N)nc3ccccc32)cc1 | 1.8 µg/mL (inactive) (≈ 6.26 µM)
COc1ccc(CSc2nc(C)cc(=O)[nH]2)cc1 | > 26 µg/mL
CC(C)(C)OC(=O)NCCc1nnc(S(=O)(=O)Cc2ccc(Cl)cc2Cl)o1 | 5.8 µg/mL (inactive) (≈ 13.3 µM)
O=C(COc1ccccc1Br)NCCc1nc2ccccc2[nH]1 | 29.4 µg/mL (≈ 78.6 µM)
O=C1C2CC=CCC2C(=O)N1c1n[nH]c(-c2ccccc2)n1 (centres undefined) | > 29 µg/mL
COc1cccc(-c2nc(-c3ccc(NC(=O)Cc4ccccc4OC)cc3)no2)c1 | 0.04 µg/mL (inactive) (≈ 0.0963 µM)
COc1ccc(S(=O)(=O)n2nc(OC(=O)c3ccccc3)cc2N)cc1 | 1.1 µg/mL (inactive) (≈ 2.95 µM)
O=C(CCNS(=O)(=O)c1cccc2nsnc12)N1CCN(c2ccccn2)CC1 | > 43 µg/mL
CS(=O)(=O)c1ccc(C(=O)OCC(=O)NC23CC4CC(CC(C4)C2)C3)cc1[N+](=O)[O-] | 4.8 µg/mL (inactive) (≈ 11 µM)
CCCOc1ccc(-c2nc(OC)c3ccccc3n2)cc1 | < 0.01 µg/mL (inactive)
CCCc1nc2c(=O)n(C)c(=O)nc-2n(C)n1 | > 23 µg/mL
COc1nc(-c2ccccc2)nnc1-c1ccccc1 | 0.18 µg/mL (inactive) (≈ 0.684 µM)

SMILES | solubility
Cc1ccnc(NC(=O)CCCOc2cc(=O)n(C)c3ccccc23)c1 | 8.3 µg/mL (inactive) (≈ 23.6 µM)
Cc1ccc(S(=O)(=O)C(c2ccccc2)c2c(C)noc2C)cc1 (centres undefined) | 17.9 µg/mL (≈ 52.4 µM)
O=C(COC(=O)C12CC3CC(CC(C3)C1)C2)NCc1ccco1 | < 0.01 µg/mL (inactive)
Cc1cc(-c2nnc3n2CCCCC3)c(C)n1-c1ccccc1 | > 30 µg/mL
O=c1c2ccccc2[se]n1-c1ccccc1 | 7.2 µg/mL (inactive) (≈ 26.3 µM)
CCOc1ccc(NC(=S)N2CCC(C(O)(c3ccccc3)c3ccccc3)CC2)cc1 | 0.92 µg/mL (inactive) (≈ 2.06 µM)
O=C(CSc1cccc2cccnc12)N1CCCC1 | > 27 µg/mL
COc1ccc(CNCc2cccc3ccccc23)cc1 | 29.6 µg/mL (≈ 107 µM)
COc1ccc(S(=O)(=O)N2CCN(S(=O)(=O)c3ccc4c(c3)OCCO4)CC2)cc1 | 0.26 µg/mL (inactive) (≈ 0.572 µM)
CN(C)c1oc(-c2ccc(OCc3ccc(Cl)cc3)cc2)nc1C#N | 0.03 µg/mL (inactive) (≈ 0.0848 µM)
O=C(O)c1cccnc1SCCc1ccccc1 | > 26 µg/mL
Oc1cc(O)cc(/C=C/c2ccc(O)c(O)c2)c1 | 6.5 µg/mL (inactive) (≈ 26.6 µM)
Brc1ccc2c(c1)CN1CCCC1=N2 | > 25 µg/mL
NC(=O)C1CCN(c2nc(-c3ccc(Br)cc3)cs2)CC1 | 0.14 µg/mL (inactive) (≈ 0.382 µM)
c1ccc2c(Nc3nnc(-c4ccncc4)s3)cccc2c1 | 2.7 µg/mL (inactive) (≈ 8.87 µM)
CC[C@H]1CN2CCc3cc(OC)c(OC)cc3[C@@H]2C[C@@H]1C[C@H]1NCCc2cc(OC)c(OC)cc21 | > 55 µg/mL
CCc1nnc(NC(=O)c2ccc(NS(=O)(=O)c3ccccc3)cc2)s1 | 1.3 µg/mL (inactive) (≈ 3.35 µM)
Cc1cc(C)nc(-n2nc(C)c(Sc3ccc(F)cc3)c2N)n1 | 4.8 µg/mL (inactive) (≈ 14.6 µM)
CCCN1CNc2c(c(=O)[nH]c(=S)n2CCc2ccc(OC)c(OC)c2)C1 | > 39 µg/mL
COc1ccccc1N(/N=C1\Sc2ccccc2C1=O)C(C)=O | 3.7 µg/mL (inactive) (≈ 11.3 µM)
CCCN(CCC)CCNC(=O)C1CCN(Cc2nc(-c3ccc(Cl)cc3)oc2C)CC1 | > 46 µg/mL
CC1CCCN(C(C(=O)Nc2ccc3c(c2)OCCO3)c2ccccc2)C1 (centres undefined) | 5.2 µg/mL (inactive) (≈ 14.2 µM)
CCc1oc2ccccc2c1C(=O)c1cc(Br)c(O)c(Br)c1 | > 42 µg/mL

SMILES | solubility
CN1CSC(=S)N(C)C1 | > 16 µg/mL
CCOC(=O)C(C)Oc1cccc2c(=O)n(CC(=O)Nc3ccc4c(c3)OCCO4)ccc12 (centres undefined) | 0.35 µg/mL (inactive) (≈ 0.774 µM)
COc1ccc(OC)c(S(=O)(=O)Nc2cnc3ccccc3c2)c1 | 25.6 µg/mL (≈ 74.3 µM)
Cc1ccccc1N1CCN(c2ncnc3c2cnn3Cc2ccc(Cl)cc2)CC1 | 0.01 µg/mL (inactive) (≈ 0.0239 µM)
O=c1[nH]c2c(s1)C(c1cccnc1)C1C3CCC(C3)C1S2 (centres undefined) | > 31 µg/mL
O=C(O)c1ccccc1OCc1ccccc1Br | > 30 µg/mL
c1ccc(CC2CCN(c3ncnc4sccc34)CC2)cc1 | 0.03 µg/mL (inactive) (≈ 0.0969 µM)
CC(=O)c1ccc(N2CCN(S(=O)(=O)c3ccc4c(c3)CC(=O)N4)CC2)cc1 | 3 µg/mL (inactive) (≈ 7.51 µM)
Cc1nc(SCc2nc3ccccc3[nH]2)c2oc3ccccc3c2n1 | 0.15 µg/mL (inactive) (≈ 0.433 µM)
COc1cc(NC(=O)c2cc(C3CC3)on2)c(OC)cc1Cl | < 0.01 µg/mL (inactive)
Cc1ccc(C(=O)n2c3ccccc3c3ccccc32)cc1 | 0.03 µg/mL (inactive) (≈ 0.105 µM)
Cc1ccc(C)c(NS(=O)(=O)c2cc(C(=O)Nc3ccccc3-c3ccccc3)ccc2Cl)c1 | 0.43 µg/mL (inactive) (≈ 0.876 µM)
O=[N+]([O-])c1ccc(CN2CCOCCOCCN(Cc3ccc([N+](=O)[O-])cc3)CCOCC2)cc1 | 21.7 µg/mL (≈ 44.4 µM)
O=C(c1ccccn1)N(Cc1cccs1)C1(C(=O)NC2CCCCC2)CCCCC1 | 7.3 µg/mL (inactive) (≈ 17.2 µM)
Cc1cc(C)n(-c2nc(NCCCO)c3c4c(sc3n2)CCCC4)n1 | 17.1 µg/mL (≈ 47.8 µM)
CCCc1cc(C(=O)N(C2CCCCC2)C2CCCCC2)no1 | 1.5 µg/mL (inactive) (≈ 4.71 µM)
CSc1nc(-c2ccc(C)cc2)nc(C(Cl)Cl)n1 | 0.07 µg/mL (inactive) (≈ 0.233 µM)
O=C1CCCC2=C1C1(CCCC1)N=C(Nc1nc3ccccc3o1)N2 | 0.13 µg/mL (inactive) (≈ 0.386 µM)
Cc1ccc(N2CCN(S(=O)(=O)N3CCCCC3)CC2)c(C)c1 | 1.4 µg/mL (inactive) (≈ 4.15 µM)
O=C1NCCCc2c1oc1ccc(O)cc21 | 16.8 µg/mL (≈ 77.3 µM)
O=S1(=O)Nc2c(ccc3cccnc23)-c2ccccc21 | > 28 µg/mL
O=C(O)CCC(NS(=O)(=O)c1ccc(-c2ccccc2)cc1)C(=O)O (centres undefined) | > 36 µg/mL
c1ccc(-c2nnc(N3CCOCC3)nc2-c2ccccc2)cc1 | 2.1 µg/mL (inactive) (≈ 6.6 µM)

SMILES | solubility
Cc1cc2c(s1)c1cnn(Cc3ccccc3F)c(=O)c1n2C | 0.08 µg/mL (inactive) (≈ 0.244 µM)
Cc1ccc(-n2c(N)c(C#N)c(-c3ccccc3)c(C#N)c2=O)cc1 | 0.83 µg/mL (inactive) (≈ 2.54 µM)
Cn1nnnc1Sc1ncnc2scc(-c3ccccc3)c12 | 2.4 µg/mL (inactive) (≈ 7.35 µM)
N#Cc1ccccc1CSc1nc2ncc(Br)cc2[nH]1 | 0.42 µg/mL (inactive) (≈ 1.22 µM)
COc1ccc(C2CC(c3ccccc3)=NN2c2ccc(S(N)(=O)=O)cc2)cc1 (centres undefined) | 0.02 µg/mL (inactive) (≈ 0.0491 µM)
Cc1cccc(-n2cnc3cc(C(=O)N4CCCCC4)ccc32)c1 | 26.3 µg/mL (≈ 82.3 µM)
CC(C)C(=O)NC(c1ccco1)c1ccc2cccnc2c1O (centres undefined) | 3.3 µg/mL (inactive) (≈ 10.6 µM)
O=c1oc2c(O)c(O)cc3c(=O)oc4c(O)c(O)cc1c4c23 | > 30 µg/mL
COc1ccc(Sc2ccc(NC(=O)c3ccccc3Cl)cc2C#N)cc1 | < 0.01 µg/mL (inactive)
CCCC(=O)Nc1cccc(NC(=O)c2ccccc2Br)c1 | > 36 µg/mL
Cc1ccc(NS(=O)(=O)c2ccc3c(c2)CCC(=O)N3)cc1C | 24.4 µg/mL (≈ 73.8 µM)
Cc1ccc(S(=O)(=O)NCc2ccc(C(=O)NCCN(Cc3ccccc3)C(C)C)cc2)cc1 | 18.6 µg/mL (≈ 38.8 µM)
COc1ccc(OC)c(-c2nnc3n2N=C(c2ccc(OC)c(OC)c2)CS3)c1 | 26.8 µg/mL (≈ 65 µM)
CN(C)c1nc(N)nc(CSc2nnnn2-c2cccc3ccccc23)n1 | 0.65 µg/mL (inactive) (≈ 1.71 µM)
COc1ccc(C2c3c(ncn(CCN4CCOCC4)c3=N)Oc3ccc4ccccc4c32)cc1OC (centres undefined) | 35.4 µg/mL (≈ 71 µM)
N#C/C(=C\c1ccc([N+](=O)[O-])o1)c1nc2ccccc2[nH]1 | 0.17 µg/mL (inactive) (≈ 0.607 µM)
CCN1CCN(c2nc3ccccc3nc2C(C#N)C(=O)OC2CCCCC2)CC1 (centres undefined) | 24.3 µg/mL (≈ 59.6 µM)
Cc1cc(C(=O)CN2C(=O)CCC2=O)c(C)n1Cc1ccccc1 | 17.8 µg/mL (≈ 54.9 µM)
O=S(=O)(NC1CCCCC1N1CCOCC1)c1ccc(Cl)cc1 (centres undefined) | > 36 µg/mL
Cc1ccc(NC(=O)CCC(=O)N/N=C/c2ccc([N+](=O)[O-])o2)cc1C | 0.43 µg/mL (inactive) (≈ 1.2 µM)

Reference: PubChem BioAssay AID624321 (Sanford-Burnham Center for Chemical Genomics, 2012)
